Key:
Conditions in all cases: 72 h
[1] = test system: Caco-2; assay: cell viability relative to DMSO; higher = less toxic
[2] = test system: Calu-3; assay: as above
[3] = test system: HepG2; assay: as above
[4] = test system: U2OS; assay: as above
[5] = test system: Vero E6; assay: as above
[6] = test system: Caco-2; assay: relative viability EC50 (midpoint between 100% and the lowest measured viability); higher = less toxic
[7] = test system: Calu-3; assay: as above
[8] = test system: HepG2; assay: as above
[9] = test system: U2OS; assay: as above
[10] = test system: Vero E6; assay: as above
[11] = test system: Caco-2; assay: drug sensitivity score (DSS) for viability; higher = more toxic; extreme values may be limits of the assay
[12] = test system: Calu-3; assay: as above
[13] = test system: HepG2; assay: as above
[14] = test system: U2OS; assay: as above
[15] = test system: Vero E6; assay: as above

Row | Structure (SMILES) | cell viability ([1]; 1 nM) | cell viability ([1]; 10 nM) | cell viability ([1]; 100 nM) | cell viability ([1]; 1000 nM) | cell viability ([1]; 10000 nM) | cell viability ([2]; 1 nM) | cell viability ([2]; 10 nM) | cell viability ([2]; 100 nM) | cell viability ([2]; 1000 nM) | cell viability ([2]; 10000 nM) | cell viability ([3]; 1 nM) | cell viability ([3]; 10 nM) | cell viability ([3]; 100 nM) | cell viability ([3]; 1000 nM) | cell viability ([3]; 10000 nM) | cell viability ([4]; 1 nM) | cell viability ([4]; 10 nM) | cell viability ([4]; 100 nM) | cell viability ([4]; 1000 nM) | cell viability ([4]; 10000 nM) | cell viability ([5]; 1 nM) | cell viability ([5]; 10 nM) | cell viability ([5]; 100 nM) | cell viability ([5]; 1000 nM) | cell viability ([5]; 10000 nM) | relative viability EC50 [6] | relative viability EC50 [7] | relative viability EC50 [8] | relative viability EC50 [9] | relative viability EC50 [10] | drug sensitivity score [11] | drug sensitivity score [12] | drug sensitivity score [13] | drug sensitivity score [14] | drug sensitivity score [15]
1 | CCC(=O)O[C@]1(C(=O)COC(C)=O)CC[C@H]2[C@@H]3C[C@H](C)C4=CC(=O)C=C[C@]4(C)[C@H]3[C@@H](O)C[C@@]21C [methylprednisolone-aceponate] | 89.6% | 95.1% | 97.4% | 96.5% | 105% | 101% | 91.6% | 91.1% | 95.1% | 96.5% | 92.1% | 101% | 91.1% | 101% | 99.3% | 101% | 94.3% | 98.5% | 96.9% | 98.1% | 88% | 100% | 92.6% | 98.3% | 104% | > 10 µM | > 10 µM | > 10 µM | > 10 µM | > 10 µM | 0 | 0 | 0 | 0 | 0
2 | COc1ccc2cc1Oc1cc3c(cc1OC)CC[N+](C)(C)[C@H]3Cc1ccc(cc1)Oc1c(OC)c(OC)cc3c1[C@@H](C2)[N+](C)(C)CC3 [metocurine] | 95.7% | 92.2% | 94.8% | 108% | 105% | 102% | 88.4% | 105% | 96.5% | 93.2% | 93.3% | 115% | 86.2% | 108% | 111% | 97.6% | 99.3% | 106% | 102% | 99.4% | 91.5% | 96.8% | 91.6% | 102% | 105% | > 10 µM | > 10 µM | > 10 µM | > 10 µM | > 10 µM | 0 | 0 | 0 | 0 | 0
3 | CNC[C@@H]1CC[C@@H](N)[C@@H](O[C@H]2[C@H](O)[C@@H](O[C@H]3OC[C@](C)(O)[C@H](NC)[C@H]3O)[C@H](N)C[C@@H]2N)O1 [micronomicin] | 98.4% | 96.1% | 104% | 96% | 97.5% | 105% | 113% | 105% | 98% | 95.5% | 93.8% | 96.8% | 105% | 100% | 106% | 96% | 104% | 99.1% | 102% | 99.3% | 98.9% | 99.8% | 98.6% | 99.4% | 99.4% | > 10 µM | > 10 µM | > 10 µM | > 10 µM | > 10 µM | 0 | 0 | 0 | 0 | 0
4 | CCCCCNCC(N)=O [milacemide] | 100% | 90.8% | 91.4% | 99.6% | 95.5% | 108% | 113% | 107% | 99.6% | 95% | 109% | 97.9% | 95.2% | 94.6% | 110% | 103% | 100% | 98.3% | 101% | 98.6% | 99.9% | 105% | 104% | 97.3% | 101% | > 10 µM | > 10 µM | > 10 µM | > 10 µM | > 10 µM | 0 | 0 | 0 | 0 | 0
5 | c1ccc2c(c1)OC[C@H](CNCCCOc1ccc3c(c1)OCO3)O2 [osemozotan] | 90.5% | 108% | 101% | 96.5% | 114% | 94% | 103% | 109% | 108% | 95.9% | 99.1% | 105% | 112% | 97% | 106% | 96.9% | 99.2% | 96.9% | 101% | 94.2% | 106% | 104% | 103% | 85.3% | 100% | > 10 µM | > 10 µM | > 10 µM | > 10 µM | > 10 µM | 0 | 0 | 0 | 0 | 0
6 | NC(=O)CN1CC(O)CC1=O (stereo not given) [oxiracetam] | 98.9% | 111% | 94.8% | 99.1% | 101% | 101% | 98% | 102% | 93.9% | 102% | 92.6% | 101% | 95.8% | 104% | 94.8% | 107% | 103% | 97.5% | 100% | 98.9% | 98.1% | 101% | 104% | 99.2% | 97.1% | > 10 µM | > 10 µM | > 10 µM | > 10 µM | > 10 µM | 0 | 0 | 0 | 0 | 0
7 | C[N+](C)(C)CC#CCN1CCCC1=O [oxotremorine-M] | 102% | 104% | 93.7% | 107% | 98.6% | 94.9% | 98.3% | 91% | 102% | 102% | 92% | 108% | 92% | 102% | 99.1% | 102% | 105% | 97.5% | 102% | 99.5% | 94.5% | 93.5% | 93.5% | 96% | 95.7% | > 10 µM | > 10 µM | > 10 µM | > 10 µM | > 10 µM | 0 | 0 | 0 | 0 | 0
8 | Cn1c(=O)[nH]c2ncn(C)c2c1=O [paraxanthine] | 95.4% | 106% | 97.4% | 102% | 91.8% | 94.9% | 101% | 92.9% | 89.8% | 98.1% | 102% | 100% | 106% | 103% | 93.2% | 97.4% | 101% | 98.2% | 100% | 99.7% | 95.5% | 95.8% | 99.2% | 93.5% | 98.2% | > 10 µM | > 10 µM | > 10 µM | > 10 µM | > 10 µM | 0 | 0 | 0 | 0 | 0
9 | FC(F)(F)C(F)(F)C(F)(F)N(C(F)(F)C(F)(F)C(F)(F)F)C(F)(F)C(F)(F)C(F)(F)F [perfluamine] | 98% | 96.8% | 95% | 88.6% | 101% | 103% | 93.2% | 99.7% | 107% | 98.3% | 101% | 97.7% | 92.2% | 101% | 93.7% | 105% | 97% | 99.8% | 97.1% | 100% | 96.5% | 97.9% | 100% | 103% | 91.1% | > 10 µM | > 10 µM | > 10 µM | > 10 µM | > 10 µM | 0 | 0 | 0 | 0 | 0
10 | CN1C(=O)CC(c2ccccc2)C1=O (stereo not given) [phensuximide] | 99.3% | 102% | 97.2% | 90.9% | 103% | 100% | 108% | 107% | 99.1% | 103% | 108% | 110% | 96.4% | 98.3% | 98.9% | 96.2% | 99.8% | 100% | 98.3% | 106% | 104% | 103% | 99.5% | 103% | 98.3% | > 10 µM | > 10 µM | > 10 µM | > 10 µM | > 10 µM | 0 | 0 | 0 | 0 | 0
11 | Oc1cc(O)cc(O)c1 [phloroglucin] | 113% | 91.5% | 104% | 91.6% | 104% | 104% | 105% | 113% | 90.1% | 98.8% | 103% | 104% | 91.8% | 99% | 104% | 101% | 98.3% | 98.7% | 98.2% | 98.7% | 101% | 102% | 98.6% | 103% | 101% | > 10 µM | > 10 µM | > 10 µM | > 10 µM | > 10 µM | 0 | 0 | 0 | 0 | 0
12 | Cc1ccc2c(c1)c1c3n2CCNC3CCC1 (stereo not given) [pirlindole] | 90.9% | 101% | 97.9% | 101% | 104% | 98.1% | 100% | 98% | 102% | 99.1% | 100% | 98% | 99.9% | 102% | 82.4% | 100% | 102% | 96.9% | 103% | 102% | 97.7% | 100% | 97.6% | 101% | 101% | > 10 µM | > 10 µM | > 10 µM | > 10 µM | > 10 µM | 0 | 0 | 0.3 | 0 | 0
13 | Nc1ccc(C(=O)O)cc1 [potassium-p-aminobenzoate] | 95.6% | 97.1% | 95.1% | 102% | 102% | 107% | 97.1% | 99% | 105% | 103% | 102% | 93.6% | 109% | 112% | 103% | 96.2% | 101% | 94.4% | 103% | 94.9% | 105% | 105% | 104% | 97.1% | 100% | > 10 µM | > 10 µM | > 10 µM | > 10 µM | > 10 µM | 0 | 0 | 0 | 0 | 0
14 | OC(CCN1CCCCC1)(c1ccccc1)c1ccccc1 [pridinol] | 96.9% | 108% | 97.9% | 94.9% | 99% | 97.8% | 96.9% | 91.7% | 99.4% | 93.2% | 101% | 95.3% | 101% | 106% | 106% | 99.5% | 102% | 93.7% | 93.5% | 100% | 99.8% | 103% | 100% | 93.8% | 98.5% | > 10 µM | > 10 µM | > 10 µM | > 10 µM | > 10 µM | 0 | 0 | 0 | 0 | 0
